In US20100179142A1 (priority 2003, published 2010):

Experiments:
MMTV-neu tumours = format: in vivo, mice
Protocol: Following pregnancy, which induces activation of the promoter, MMTV-neu mice spontaneously develop multiple tumours within each mammary gland. […] Control animals were dosed with vehicle (1% polysorbate 80). Due to variability in the growth of spontaneous tumours, dosing commenced at different times relative to the assessment of tumour volume, which was determined twice weekly on all animals using calipers. To simplify the analysis, data within each group were collated in 3 day intervals (e.g. tumour volumes from mice receiving either 2, 3 or 4 doses of compound were pooled and the mean volume plotted against “day 3”). Data is plotted for measurements grouped over 3 day periods ie 2-4, 5-7, 8-10 etc. Statistical analysis was performed on measurements between 20 and 22 days of dosing.

[1] = system: A431 vulval carcinoma xenografts; assay: Human A431 vulval carcinoma tumour xenografts in nude mice; conditions: p.o. daily, AZD2171 3 mg/kg/day, ZD1839 50 mg/kg/day or both; for Number of tumours regressing after 24 days of treatment (treatment from day 28 to day 52): regressing/total
Protocol: 5×10^6 A431 tumour cells in 0.1 ml of serum free Dulbecco's Modified Eagle's Medium (DMEM) were injected subcutaneously (s.c.) into the flank of each athymic (nu/nu genotype) mouse. Eleven days after inoculation tumours were excised and dissected to generate cubic tumour fragments of 0.5-1 mm^3, which were implanted into further nude mice for a therapy experiment. Tumour volumes were assessed by bilateral Vernier caliper measurement and, taking length to be the longest diameter across the tumour and width the corresponding perpendicular, calculated using the formula (length×width)×the square root of (length×width)×(π/6). […] Inhibition of tumour growth from the start of treatment was assessed on day 45 (the point at which control animals were removed from the experiment because of tumour burden) by comparison of the differences in tumor volume between control and treated groups. In addition, the number of tumour regressions following 24 days of treatment was ascertained (tumour regression being evident if the tumour volume at day 52 was smaller than the pre-treatment value on day 28).

Compound	inhibition of growth of established MMTV-neu tumours (MMTV-neu tumours; AZD2171 alone 1 or 3 mg/kg/day, orally once-daily, 20-22 days of dosing, P<0.05)	Number of tumours regressing after 24 days of treatment (treatment from day 28 to day 52) [1]	Mean % Inhibition of tumour growth following 17 days of treatment (treatment from day 28 to day 45) ([1]; versus control at day 45)	anti-tumour effect in MMTV-neu mice (MMTV-neu tumours; mouse, in vivo)
COc1cc2c(Oc3ccc4[nH]c(C)cc4c3F)ncnc2cc1OCCCN1CCCC1 [AZD2171, 4-(4-fluoro-2-methylindol-5-yloxy)-6-methoxy-7-(3-(pyrrolidin-1-yl)propoxy)quinazoline]	inhibited the growth of established (≧0.4 cm^3) MMTV-neu tumours significantly	2/10	95% (P < 0.001)	–
COc1cc2ncnc(Nc3ccc(F)c(Cl)c3)c2cc1OCCCN1CCOCC1 [ZD1839, N-(3-chloro-4-fluorophenyl)-7-methoxy-6-(3-morpholinopropoxy)quinazolin-4-amine, reference compound]	–	2/10	–	significant anti-tumour effect
